Tested on: Sprague-Dawley rats
Experiment: Organ weights
Format: in vivo, Rattus norvegicus
Experimental: At the end of the treatment period (males on study day 28–31, females on study day 28–32) the rats were anesthetized with CO2/O2 (70/30%). Blood samples were drawn from the left ventricle using Venoject needles (Terumo) and Vacuette EDTA and serum blood collection tubes, and the rats were killed by exsanguination. EDTA blood was used for hematology investigations (see below). Serum was separated, divided into aliquots, frozen in liquid nitrogen and stored at −70°C for further analysis (see below). A complete necropsy (macroscopic observations, tissue sampling for molecular biology, biochemistry, histopathology, analytical chemistry and organ weights) was performed on each rat. The weights of the following organs were recorded: adrenals, brain, epididymides, heart, kidneys, liver, lungs, ovaries, pituitary, prostate (ventral), seminal vesicles, spleen, testes, thymus, thyroids (with parathyroids) and uterus. For molecular biology and biochemical analyses samples from brain, liver, kidney, bones, and several other tissues were snap frozen in liquid nitrogen and stored at −80°C for further analysis. […] Tissue samples for histopathology were preserved in 10% neutral buffered formalin except testis and epididymis, which were fixed in Bouin's solution for 24 h after which they were transferred into 70% ethanol.
Data were also analyzed using the BMD method, which is based on dose-response modeling of the full data set using a nested family of exponential and Hill models. The analyses were done on data of males and females combined, using sex as a covariate. […] In that case, different Critical Effect Doses (CEDs) and CEDs at the lowest bound of the confidence interval (CED-L) were generated for each sex. If no difference between sexes is detected, a CED and CED-Ls for the combined data is generated. However, this was also done if the curve fits are close, and separate analyses for males and females were then performed manually. CEDs and CED-Ls were calculated at the predefined Critical Effect Size (CES) of 5% (EFSA standard) or 10%.

[1] = females, total dose 1000 mg/kg bw, group mean
[2] = females, total dose 1700 mg/kg bw, group mean
[3] = males, CES 5%, total dose based
[4] = males, CES 10%, total dose based
[5] = males, adipose tissue concentration based
[6] = males, total dose 3 mg/kg bw, group mean
[7] = males, total dose 10 mg/kg bw, group mean
[8] = males, total dose 30 mg/kg bw, group mean
[9] = males, total dose 100 mg/kg bw, group mean
[10] = males, total dose 300 mg/kg bw, group mean
[11] = males, total dose 1000 mg/kg bw, group mean
[12] = males, total dose 1700 mg/kg bw, group mean

## Clc1cc(Cl)c(-c2cc(Cl)c(Cl)c(Cl)c2Cl)cc1Cl [PCB 180, 2,2′,3′,4,4′,5,5′-heptachlorobiphenyl]
[1]
  Organ weight, Spleen: 0.700 g
  Organ weight, Thymus: 0.528 g
  Organ weight, Thyroid gland: 0.0158 g
  Organ weight, Uterus: 0.374 g
[2]
  Organ weight, Adrenals: 0.0657 g
  Organ weight, Brain: 1.60 g
  Organ weight, Heart: 0.900 g
  Organ weight, Kidneys: 1.40 g
  Organ weight, Ovaries: 0.102 g
  Organ weight, Pituitary: 0.0108 g
  Organ weight, Spleen: 0.664 g
  Organ weight, Thymus: 0.560 g
  Organ weight, Thyroid gland: 0.0160 g
  Organ weight, Uterus: 0.366 g
males, total dose 0-1700 mg/kg bw
  Dose response, Thyroid gland weight: D, T
[3]
  Liver weight, CED: 11.6 mg/kg bw
  Liver weight, CED-L: 5.48 mg/kg bw
  Thyroid gland weight, CED: 239 mg/kg bw
  Thyroid gland weight, CED-L: 168 mg/kg bw
[4]
  Liver weight, CED: 24.2 mg/kg bw
  Liver weight, CED-L: 11.4 mg/kg bw
  Thyroid gland weight, CED: 467 mg/kg bw
  Thyroid gland weight, CED-L: 328 mg/kg bw
[5]
  Liver weight, CED: 42.3 µg/g lipid
  Thyroid weight, CED: 1030 µg/g lipid
[6]
  Organ weight, Adrenals: 0.0472 g
  Organ weight, Brain: 1.65 g
  Organ weight, Epididymides: 0.972 g
  Organ weight, Heart: 1.27 g
  Organ weight, Kidneys: 2.00 g
  Organ weight, Pituitary: 0.0091 g
  Organ weight, Seminal vesicles: 0.915 g
  Organ weight, Spleen: 0.828 g
  Organ weight, Testis L: 1.82 g
  Organ weight, Testis R: 1.82 g
  Organ weight, Thymus: 0.632 g
  Organ weight, Thyroid gland: 0.0210 g
  Organ weight, Ventral prostate: 0.492 g
[7]
  Organ weight, Adrenals: 0.0514 g
  Organ weight, Brain: 1.75 g
  Organ weight, Epididymides: 0.952 g
  Organ weight, Heart: 1.17 g
  Organ weight, Kidneys: 2.15 g
  Organ weight, Pituitary: 0.0088 g
  Organ weight, Seminal vesicles: 0.983 g
  Organ weight, Spleen: 0.828 g
  Organ weight, Testis L: 1.92 g
  Organ weight, Testis R: 1.88 g
  Organ weight, Thymus: 0.594 g
  Organ weight, Thyroid gland: 0.0221 g
  Organ weight, Ventral prostate: 0.451 g
[8]
  Organ weight, Adrenals: 0.0665 g
  Organ weight, Brain: 1.72 g
  Organ weight, Epididymides: 1.030 g
  Organ weight, Heart: 1.31 g
  Organ weight, Kidneys: 2.09 g
  Organ weight, Pituitary: 0.0098 g
  Organ weight, Seminal vesicles: 0.966 g
  Organ weight, Spleen: 0.876 g
  Organ weight, Testis L: 1.79 g
  Organ weight, Testis R: 1.78 g
  Organ weight, Thymus: 0.764 g
  Organ weight, Thyroid gland: 0.0227 g
  Organ weight, Ventral prostate: 0.518 g
[9]
  Organ weight, Adrenals: 0.0513 g
  Organ weight, Brain: 1.70 g
  Organ weight, Epididymides: 0.992 g
  Organ weight, Heart: 1.20 g
  Organ weight, Kidneys: 2.13 g
  Organ weight, Pituitary: 0.0107 g
  Organ weight, Seminal vesicles: 1.015 g
  Organ weight, Spleen: 0.826 g
  Organ weight, Testis L: 1.88 g
  Organ weight, Testis R: 1.88 g
  Organ weight, Thymus: 0.770 g
  Organ weight, Thyroid gland: 0.0236 g
  Organ weight, Ventral prostate: 0.521 g
[10]
  Organ weight, Adrenals: 0.0407 g
  Organ weight, Brain: 1.74 g
  Organ weight, Epididymides: 0.966 g
  Organ weight, Heart: 1.23 g
  Organ weight, Kidneys: 2.11 g
  Organ weight, Pituitary: 0.0098 g
  Organ weight, Seminal vesicles: 1.038 g
  Organ weight, Spleen: 0.858 g
  Organ weight, Testis L: 1.87 g
  Organ weight, Testis R: 1.85 g
  Organ weight, Thymus: 0.690 g
  Organ weight, Thyroid gland: 0.0266 g
  Organ weight, Ventral prostate: 0.536 g
[11]
  Organ weight, Adrenals: 0.0450 g
  Organ weight, Brain: 1.71 g
  Organ weight, Epididymides: 0.974 g
  Organ weight, Heart: 1.12 g
  Organ weight, Kidneys: 2.18 g
  Organ weight, Pituitary: 0.0115 g
  Organ weight, Seminal vesicles: 1.210 g
  Organ weight, Spleen: 0.858 g
  Organ weight, Testis L: 1.89 g
  Organ weight, Testis R: 1.85 g
  Organ weight, Thymus: 0.686 g
  Organ weight, Thyroid gland: 0.0294 g
  Organ weight, Ventral prostate: 0.566 g
[12]
  Organ weight, Adrenals: 0.0463 g
  Organ weight, Brain: 1.68 g
  Organ weight, Epididymides: 0.952 g
  Organ weight, Heart: 1.16 g
  Organ weight, Kidneys: 2.03 g
  Organ weight, Pituitary: 0.0089 g
  Organ weight, Seminal vesicles: 0.947 g
  Organ weight, Spleen: 0.800 g
  Organ weight, Testis L: 1.84 g
  Organ weight, Testis R: 1.88 g
  Organ weight, Thymus: 0.772 g
  Organ weight, Ventral prostate: 0.461 g
rat, in vivo
  Thymus weight: not decreased

Reference: paper PMC4138103 (PLoS ONE, 2014)
